Experimental data: patent publication EP4810508A1, “ARABINOSE DERIVATIVE COMPOUND, AND COMPOSITION COMPRISING SAME FOR PREVENTING OR TREATING DEGENERATIVE BRAIN DISEASES” (Digmbio. Inc., priority 2023, dated 2025)
Read-outs that look alike come from different tables or passages of the source.

Assays:
[1] = tested on: HRE/Luc/HEK293 cells; assay: HRE (Hypoxia Response Element) luciferase assay; type: cell-based, human; details: for fold induction at 10 µM / fold induction at 100 µM: Homo sapiens; for HRE expression: concentration of 10 µM; for HRE assay: increase in HRE expression levels by the test substance relative to the vehicle in HRE/Luc/HEK293 cells
Procedure, shortened: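 HRE-luciferase HEK293 cells in MEM/10% FBS pretreated with compound 6 h, then held under hypoxia (0.1% O2) 18 h; luminescence read after lysis. Scored as fold increase over vehicle, with twofold threshold at 100, 10 or 1 µM.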

[2] = tested on: male ICR mice; assay: Scopolamine-induced cognitive impairment model: Y-maze test; type: in vivo; details: for percent recovery of cognitive function (Y-maze) at 50 mg/kg: Mus musculus, po, 168 h; for in vivo Y-maze (%): spontaneous alternation, scopolamine 1 mg/kg i.p., compounds 50 mg/kg oral for 7 days, donepezil 5 mg/kg (avg.)
Source text: (§1) A memory loss rodent animal model induced by scopolamine intraperitoneal administration is used, and an evaluation method for memory uses a Y-maze test and a passive avoidance test (PAT). Scopolamine is a representative experimental model showing an impairment of cognitive function similar to AD patients by blocking neurotransmitters when administered to an animal as an antagonist of a muscarinic acetylcholine receptor, and as a cognitive function evaluation technique, a Y-maze test and a passive avoidance experiment, which are general and representative methods, were used, and in order to objectify the efficacy levels of the compounds, a group administered with donepezil (Aricept, Eisa) as a positive control material was separately provided to compare the efficacy levels of the compounds.
(§2) In order to evaluate cognitive function, 5-week-old male ICR mice were used, the compounds to be evaluated were prepared at a dose of 50 mg/kg/ml and repeatedly orally administered at a predetermined time for 7 days, and the positive control material was carried out at 5 mg/kg/ml. After the last administration, after 30 minutes of intraperitoneal administration of 1 mg/kg/2 ml of scopolamine, a Y-maze test and a passive avoidance test, which are cognitive function evaluations, were performed.
The Y-maze test is a method for evaluating the ability to sequentially act as an experiment for measuring short-term memory. The measurement equipment is composed of three branches, each branch has a length of 42 cm, a width of 3 cm, and a height of 12 cm, and an angle at which three branches are folded is 120°. Experimental animals are put into each branch for 8 minutes, and the number of times of entering the branches to the tail of the experimental animal and the case of being sequentially received in each branch are scored (actual alternation). The alternation behavior is defined as entering not to overlap all three, and is calculated by the following equation. [formula]

[3] = tested on: male ICR mice; assay: Scopolamine-induced cognitive impairment model: passive avoidance test (PAT); type: in vivo; details: for percent recovery of memory in passive avoidance test (normal group = 100, scopolamine control = 0) at 50 mg/kg: Mus musculus, po, 168 h, read-out: in vivo(effect) PAT (%); for in vivo PAT: time staying in bright room (step-through latency), scopolamine 1 mg/kg i.p., compounds 50 mg/kg oral for 7 days, donepezil 5 mg/kg (avg.); for cognitive function recovery compared to normal animals, passive avoidance test (effect %): compounds 50 mg/kg, donepezil 5 mg/kg, orally for 7 days, scopolamine 1 mg/kg intraperitoneal
Source text: as §1, §2
In addition, the passive avoidance test was conducted using an avoidance learning box (Jeondo B&P, Korea, Seoul), and the avoidance learning box is divided into a dark room and a bright room, and when a laboratory animal is put into a bright room, the subject goes beyond the dark room. At the moment, an electric shock of 0.5 mA is applied for 5 seconds, and when the next day experimental animal is put back into a bright room, an electric shock in a dark room is memorized and stay in a bright room. In this case, a step-through latency is measured to evaluate memory. The efficacy of the compounds of the present invention against the normal group and the control group in the Y-maze test and the passive avoidance test was described in the following Table 3 (Scopolamine-induced cognitive impairment model result).

[4] = HEK293, fold increase of HRE expression, hypoxic conditions (O2 0.1%) 18 hours, Table 2, read-out: HRE-increasing 10uM
[5] = HEK293, fold increase of HRE expression, hypoxic conditions (O2 0.1%) 18 hours, Table 2, read-out: HRE-increasing 100uM
[6] = read-out: in vivo(effect) Y-maze (%)
[7] = read-out: cognitive function recovery compared to normal animals, Y-maze experiment (effect %)

Q: For CC(C)c1ccc(Cc2ccc(S[C@H]3OC[C@H](O)[C@H](O)C3O)cc2)cc1 (stereo partly drawn) [Example 27, (2R,4S,5S)-2-((4-(4-isopropylbenzyl)phenyl)thio) tetrahydro-2H-pyran-3,4,5-triol], which fold induction at 10 µM [1, 4] is on record?
A: 3.7

Q: What about the fold induction at 100 µM [1, 5] of the same molecule?
A: < 1

Q: What about the HRE expression [1] of the same molecule?
A: more than threefold

Q: What about the percent recovery of cognitive function (Y-maze) at 50 mg/kg [2, 6] of the same molecule?
A: 44%

Q: And the “in vivo Y-maze (%)” value [2]?
A: 62%

Q: And the percent recovery of memory in passive avoidance test (normal group = 100, scopolamine control = 0) at 50 mg/kg [3]?
A: 28%

Q: And the “in vivo PAT” value [3]?
A: 80 s

Q: What does the source list for O[C@@H]1[C@@H](O)[C@@H](Oc2ccc(Cc3ccc(Oc4ccccc4)cc3)cc2)OC[C@@H]1O [Example 9, (2R,3R,4S,5S)-2-(4-(4-phenoxybenzyl)phenoxy) tetrahydro-2H-pyran-3,4,5-triol]?
A: fold induction at 10 µM [1, 4]: 1.2; fold induction at 100 µM [1, 5]: < 1; HRE assay [1]: •; percent recovery of cognitive function (Y-maze) at 50 mg/kg [2, 6]: 9%; in vivo Y-maze (%) [2]: 57%; percent recovery of memory in passive avoidance test (normal group = 100, scopolamine control = 0) at 50 mg/kg [3]: 32%; in vivo PAT [3]: 127 s

Q: What does the source list for O[C@@H]1[C@@H](O)[C@@H](Oc2ccc(Cc3ccsc3)cc2)OC[C@@H]1O [Example 23, (2R,3R,4S,5S)-2-(4-(thiophen-3-ylmethyl)phenoxy)tetrahydro-2H-pyran-3,4,5-triol]?
A: fold induction at 10 µM [1, 4]: 1.6; fold induction at 100 µM [1, 5]: 2.7; percent recovery of cognitive function (Y-maze) at 50 mg/kg [2, 6]: 41%; in vivo Y-maze (%) [2]: 59%; percent recovery of memory in passive avoidance test (normal group = 100, scopolamine control = 0) at 50 mg/kg [3]: 22%; in vivo PAT [3]: 87 s

Q: Which fold induction at 10 µM [1, 4] does the source give for CC(C)c1ccc(Cc2ccc(O[C@H]3OC[C@H](O)[C@H](O)[C@H]3O)c(Cl)c2)cc1 [Example 8, (2R,3R,4S,5S)-2-(2-chloro-4-(4-isopropylbenzyl)phenoxy)tetrahydro-2H-pyran-3,4,5-triol] here?
A: 4.2

Q: And the HRE expression [1]?
A: more than threefold

Q: What about the HRE assay [1] of the same molecule?
A: •••

Q: And the percent recovery of cognitive function (Y-maze) at 50 mg/kg [2, 6]?
A: 43%

Q: What about the “in vivo Y-maze (%)” value [2] of the same molecule?
A: 58%

Q: What about the percent recovery of memory in passive avoidance test (normal group = 100, scopolamine control = 0) at 50 mg/kg [3] of the same molecule?
A: 11%

Q: What about the “in vivo PAT” value [3] of the same molecule?
A: 58 s

Q: For CC(C)c1ccc(Oc2ccc(O[C@H]3OC[C@H](O)[C@H](O)[C@H]3O)cc2)cc1 [Example 35, (2R,3R,4S,5S)-2-(4-(4-isopropylphenoxy)phenoxy)tetrahydro-2H-pyran-3,4,5-triol], which fold induction at 10 µM [1, 4] is on record?
A: 3.7

Q: What about the fold induction at 100 µM [1, 5] of the same molecule?
A: < 1

Q: And the HRE expression [1]?
A: more than threefold

Q: And the percent recovery of cognitive function (Y-maze) at 50 mg/kg [2, 6]?
A: 41%

Q: And the “in vivo Y-maze (%)” value [2]?
A: 59%

Q: What about the percent recovery of memory in passive avoidance test (normal group = 100, scopolamine control = 0) at 50 mg/kg [3] of the same molecule?
A: 45%

Q: What about the “in vivo PAT” value [3] of the same molecule?
A: 141 s

Q: With O[C@@H]1[C@@H](O)[C@@H](Oc2ccc(CC3CCCCC3)cc2)OC[C@@H]1O [Example 22, (2R,3R,4S,5S)-2-(4-(cyclohexylmethyl)phenoxy)tetrahydro-2H-pyran-3,4,5-triol] as the molecule, how does the fold induction at 10 µM [1, 4] read?
A: 2.5

Q: And the fold induction at 100 µM [1, 5]?
A: 2.8

Q: What about the percent recovery of cognitive function (Y-maze) at 50 mg/kg [2, 7] of the same molecule?
A: ≥ 50%

Q: What about the percent recovery of cognitive function (Y-maze) at 50 mg/kg [2, 6] of the same molecule?
A: 56%

Q: What about the “in vivo Y-maze (%)” value [2] of the same molecule?
A: 65%

Q: And the percent recovery of memory in passive avoidance test (normal group = 100, scopolamine control = 0) at 50 mg/kg [3]?
A: 36%

Q: And the “in vivo PAT” value [3]?
A: 145 s

Q: CC(C)c1ccc(Oc2ccc(O[C@H]3OC[C@@H](O)[C@H](O)[C@H]3O)cc2)cc1 [Example 56, (2R,3R,4S,5R)-2-(4-(4-isopropylphenoxy)phenoxy)tetrahydro-2H-pyran-3,4,5-triol] was tested. Which fold induction at 10 µM ([1]; HEK293, 18 h, Table 2 (Examples 37-74, 52), read-out: HKt-increasing 10uM) did it give?
A: 2.7

Q: What about the fold induction at 100 µM ([1]; HEK293, 18 h, Table 2 (Examples 37-74, 52), read-out: HKt-increasing 100uM) of the same molecule?
A: 1.4

Q: And the percent recovery of cognitive function (Y-maze) at 50 mg/kg [2, 7]?
A: ≥ 50%

Q: And the percent recovery of cognitive function (Y-maze) at 50 mg/kg [2, 6]?
A: 64%

Q: And the “in vivo Y-maze (%)” value [2]?
A: 61.8%

Q: What about the percent recovery of memory in passive avoidance test (normal group = 100, scopolamine control = 0) at 50 mg/kg [3] of the same molecule?
A: 81%

Q: What about the “cognitive function recovery compared to normal animals, passive avoidance test (effect %)” value (shortened to “cognitive function recovery … (effect %)”) [3] of the same molecule?
A: ≥ 50%

Q: What about the “in vivo PAT” value [3] of the same molecule?
A: 217.3 s

Q: Which fold induction at 10 µM [1, 4] does the source give for CCOc1ccc(C(C)(C)c2ccc(O[C@H]3OC[C@H](O)[C@H](O)[C@H]3O)cc2)cc1 [Example 31, (2R,3R,4S,5S)-2-(4-(2-(4-ethoxyphenyl)propan-2-yl)phenoxy)tetrahydro-2H-pyran-3,4,5-triol] here?
A: 1.1

Q: And the fold induction at 100 µM [1, 5]?
A: 1.6

Q: And the percent recovery of cognitive function (Y-maze) at 50 mg/kg [2, 7]?
A: ≥ 50%

Q: And the percent recovery of cognitive function (Y-maze) at 50 mg/kg [2, 6]?
A: 71%

Q: What about the “in vivo Y-maze (%)” value [2] of the same molecule?
A: 68%

Q: What about the percent recovery of memory in passive avoidance test (normal group = 100, scopolamine control = 0) at 50 mg/kg [3] of the same molecule?
A: 65%

Q: What about the “cognitive function recovery … (effect %)” value [3] of the same molecule?
A: ≥ 50%

Q: And the “in vivo PAT” value [3]?
A: 204 s

Q: With CC(C)c1ccc(Cc2ccc(O[C@H]3OC[C@H](O)[C@H](O)[C@H]3O)cc2)cc1 [Example 7, (2R,3R,4S,5S)-2-(4-(4-isopropylbenzyl)phenoxy)tetrahydro-2H-pyran-3,4,5-triol] as the molecule, how does the fold induction at 10 µM [1, 4] read?
A: 3.5

Q: What about the fold induction at 100 µM [1, 5] of the same molecule?
A: < 1

Q: What about the HRE expression [1] of the same molecule?
A: more than threefold

Q: What about the HRE assay [1] of the same molecule?
A: •••

Q: What about the percent recovery of cognitive function (Y-maze) at 50 mg/kg [2, 7] of the same molecule?
A: ≥ 50%

Q: And the percent recovery of cognitive function (Y-maze) at 50 mg/kg [2, 6]?
A: 57%

Q: And the “in vivo Y-maze (%)” value [2]?
A: 65%

Q: And the percent recovery of memory in passive avoidance test (normal group = 100, scopolamine control = 0) at 50 mg/kg [3]?
A: 73%

Q: And the “cognitive function recovery … (effect %)” value [3]?
A: ≥ 50%

Q: And the “in vivo PAT” value [3]?
A: 179 s
